# Measured values taken from US11618747B2, “LXR modulators with bicyclic core moiety” (OrsoBio, Inc., priority 2018, dated 2023).
# Biological target: T1, full length (FL) LXRα (Homo sapiens, UniProt Q13133)
# T1 construct: the full length (FL) proteins of LXRα (amino acids 1-447); NP005684; expressed in transfected cells; host or cells: HEK293
# T1 sequence (Q13133 1-447): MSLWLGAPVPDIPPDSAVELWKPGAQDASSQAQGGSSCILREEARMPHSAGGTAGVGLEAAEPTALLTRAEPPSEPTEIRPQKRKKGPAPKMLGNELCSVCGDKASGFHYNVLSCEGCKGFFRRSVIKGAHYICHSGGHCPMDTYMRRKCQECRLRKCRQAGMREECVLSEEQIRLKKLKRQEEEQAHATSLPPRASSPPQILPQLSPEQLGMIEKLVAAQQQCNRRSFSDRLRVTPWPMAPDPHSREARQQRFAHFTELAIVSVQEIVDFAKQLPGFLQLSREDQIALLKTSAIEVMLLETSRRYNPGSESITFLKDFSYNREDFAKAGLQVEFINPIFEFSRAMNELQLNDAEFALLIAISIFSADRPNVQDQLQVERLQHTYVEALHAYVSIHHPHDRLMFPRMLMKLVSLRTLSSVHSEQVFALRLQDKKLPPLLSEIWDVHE
# Test: LXR Gal4 reporter transient transfection assay (FL-M2H Gal4α)
# Format: cell-based
# Settings: HEK293 cells
# Procedure, shortened: (§1)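 Luminescence readout: Firefly luciferase driven by GAL4 response elements reports LXR–cofactor interaction, normalised against cotransfected Renilla luciferase. The system used HEK293 cells expressing LXR full length or ligand-binding domain fused to the NFkB activation domain, with SRC1 or NCoR domains on GAL4 DBD; compound exposure was 16 h.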
row,Compound,FL-M2H Gal4α efficacy (value in brackets) [%]
1,N#Cc1ccccc1-c1c(-c2cccc(-c3ccc(C(=O)O)cc3Cl)c2)n(S(=O)(=O)c2ccc(C(F)F)cc2)c2ccc(F)cc12 [11/33],164

# Same assay, conditions: HEK293 cells, full length LXRα; read-out: FL-M2H Gal4α (EC50 range)
row,Compound,EC50 [nM]
1,Cc1ccc(S(=O)(=O)n2c(-c3cccc(N4CC(C(=O)O)C4)c3)c(-c3ccsc3C#N)c3cc(F)ccc32)cc1 [3/32],100 to 1000
2,Cc1ccc(S(=O)(=O)n2c(-c3cccc(N4CC(C(=O)O)C4)c3)c(-c3ccsc3C#N)c3cc(F)c(F)cc32)cc1 [3/42],100 to 1000
3,Cc1ccc(S(=O)(=O)n2c(-c3cccc(N4CC(C(=O)O)C4)c3)c(-c3ccsc3C#N)c3cc(F)c(Cl)cc32)cc1 [3/43],100 to 1000
4,Cc1ccc(S(=O)(=O)n2c(-c3cccc(N4CC(C(=O)O)C4)c3)c(-c3ccsc3C#N)c3cc(Cl)ccc32)cc1 [3/44],< 100
5,Cc1ccc(S(=O)(=O)n2c(-c3cccc(N4CC(C(=O)O)C4)c3)c(-c3ccsc3C#N)c3cc(C)ccc32)cc1 [3/46],< 100
6,Cc1ccc(S(=O)(=O)n2c(-c3cccc(-c4ccc(C(=O)O)cc4Cl)c3)c(-c3ccsc3C#N)c3cc(F)ccc32)cc1 [3/48],< 100
7,O=C(O)c1ccc(-c2cccc(-c3c(-c4ccccc4C4COC4)c4cc(F)ccc4n3S(=O)(=O)c3ccc(C(F)F)cc3)c2)c(Cl)c1 [3/59],< 100
8,Cc1ccc(S(=O)(=O)n2c(-c3cccc(C45CCC(C(=O)O)(CC4)CC5)c3)c(-c3ccsc3C#N)c3cc(F)ccc32)cc1 [3/64],< 100
9,N#Cc1cccc(C#N)c1-c1c(-c2cccc(-c3c(F)cc(CC(=O)O)cc3F)c2)n(S(=O)(=O)c2ccc(C(F)F)cc2)c2ccc(F)cc12 [3/73],< 100
10,CC(=O)NS(=O)(=O)c1ccc(-c2cccc(-c3c(-c4c(C#N)cccc4C#N)c4cc(F)ccc4n3S(=O)(=O)c3ccc(C(F)F)cc3)c2)c(Cl)c1 [8/8],< 100
11,N#Cc1cccc(C#N)c1-c1c(-c2cccc(-c3ccc(C(=O)NCCS(=O)(=O)O)cc3Cl)c2)n(S(=O)(=O)c2ccc(C(F)F)cc2)c2ccc(F)cc12 [10/1],< 100
12,CN(CCS(=O)(=O)O)C(=O)c1ccc(-c2cccc(-c3c(-c4c(C#N)cccc4C#N)c4cc(F)ccc4n3S(=O)(=O)c3ccc(C(F)F)cc3)c2)c(Cl)c1 [10/2],< 100
13,N#Cc1nccnc1-c1c(-c2cccc(-c3cc(F)c(C(=O)O)cc3Cl)c2)n(S(=O)(=O)c2ccc(C(F)F)cc2)c2ccc(F)cc12 [11/11],< 100
14,N#Cc1ccccc1-c1c(-c2cccc(-c3ccc(C(=O)O)cc3Cl)c2)n(S(=O)(=O)c2ccc(C(F)F)cc2)c2ccc(F)cc12 [11/33],< 100

# Same assay, conditions: HEK293 cells; read-out: FL-M2H Gal4α potency
row,Compound,EC50 [nM]
1,N#Cc1ccccc1-c1c(-c2cccc(-c3ccc(C(=O)O)cc3Cl)c2)n(S(=O)(=O)c2ccc(C(F)F)cc2)c2ccc(F)cc12 [11/33],1.3

# Biological target: T2, full length (FL) LXRβ (Homo sapiens, UniProt P55055, DUP175-175)
# T2 construct: the full length (FL) proteins of LXRα (amino acids 1-447); NP005684; NP009052; expressed in transfected cells; host or cells: HEK293
# T2 sequence (P55055 with tags, fused parts or gaps DUP175-175): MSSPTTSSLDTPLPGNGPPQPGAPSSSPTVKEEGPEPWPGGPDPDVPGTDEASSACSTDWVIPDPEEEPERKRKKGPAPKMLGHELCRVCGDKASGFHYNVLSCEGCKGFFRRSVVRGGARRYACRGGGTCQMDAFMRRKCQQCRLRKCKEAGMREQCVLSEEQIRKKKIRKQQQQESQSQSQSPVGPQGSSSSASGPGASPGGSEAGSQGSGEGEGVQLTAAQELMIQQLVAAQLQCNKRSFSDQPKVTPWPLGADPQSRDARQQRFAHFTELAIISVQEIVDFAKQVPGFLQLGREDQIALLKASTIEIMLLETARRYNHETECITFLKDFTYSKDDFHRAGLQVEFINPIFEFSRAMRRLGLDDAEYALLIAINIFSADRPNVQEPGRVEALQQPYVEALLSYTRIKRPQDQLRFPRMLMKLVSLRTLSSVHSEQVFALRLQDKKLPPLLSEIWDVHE
# Test: LXR Gal4 reporter transient transfection assay (FL-M2H Gal4β)
# Format: cell-based
# Settings: HEK293 cells
# Procedure, shortened: as §1
row,Compound,FL-M2H Gal4β efficacy (value in brackets) [%]
1,N#Cc1ccccc1-c1c(-c2cccc(-c3ccc(C(=O)O)cc3Cl)c2)n(S(=O)(=O)c2ccc(C(F)F)cc2)c2ccc(F)cc12 [11/33],130

# Same assay, conditions: HEK293 cells, full length LXRβ; read-out: FL-M2H Gal4β (EC50 range)
row,Compound,EC50 [nM]
1,Cc1ccc(S(=O)(=O)n2c(-c3cccc(N4CC(C(=O)O)C4)c3)c(-c3ccsc3C#N)c3cc(F)ccc32)cc1 [3/32],< 100
2,Cc1ccc(S(=O)(=O)n2c(-c3cccc(N4CC(C(=O)O)C4)c3)c(-c3ccsc3C#N)c3cc(F)c(F)cc32)cc1 [3/42],< 100
3,Cc1ccc(S(=O)(=O)n2c(-c3cccc(N4CC(C(=O)O)C4)c3)c(-c3ccsc3C#N)c3cc(F)c(Cl)cc32)cc1 [3/43],< 100
4,Cc1ccc(S(=O)(=O)n2c(-c3cccc(N4CC(C(=O)O)C4)c3)c(-c3ccsc3C#N)c3cc(Cl)ccc32)cc1 [3/44],< 100
5,Cc1ccc(S(=O)(=O)n2c(-c3cccc(N4CC(C(=O)O)C4)c3)c(-c3ccsc3C#N)c3cc(C)ccc32)cc1 [3/46],< 100
6,Cc1ccc(S(=O)(=O)n2c(-c3cccc(-c4ccc(C(=O)O)cc4Cl)c3)c(-c3ccsc3C#N)c3cc(F)ccc32)cc1 [3/48],< 100
7,O=C(O)c1ccc(-c2cccc(-c3c(-c4ccccc4C4COC4)c4cc(F)ccc4n3S(=O)(=O)c3ccc(C(F)F)cc3)c2)c(Cl)c1 [3/59],< 100
8,Cc1ccc(S(=O)(=O)n2c(-c3cccc(C45CCC(C(=O)O)(CC4)CC5)c3)c(-c3ccsc3C#N)c3cc(F)ccc32)cc1 [3/64],< 100
9,N#Cc1cccc(C#N)c1-c1c(-c2cccc(-c3c(F)cc(CC(=O)O)cc3F)c2)n(S(=O)(=O)c2ccc(C(F)F)cc2)c2ccc(F)cc12 [3/73],< 100
10,CC(=O)NS(=O)(=O)c1ccc(-c2cccc(-c3c(-c4c(C#N)cccc4C#N)c4cc(F)ccc4n3S(=O)(=O)c3ccc(C(F)F)cc3)c2)c(Cl)c1 [8/8],< 100
11,N#Cc1cccc(C#N)c1-c1c(-c2cccc(-c3ccc(C(=O)NCCS(=O)(=O)O)cc3Cl)c2)n(S(=O)(=O)c2ccc(C(F)F)cc2)c2ccc(F)cc12 [10/1],< 100
12,CN(CCS(=O)(=O)O)C(=O)c1ccc(-c2cccc(-c3c(-c4c(C#N)cccc4C#N)c4cc(F)ccc4n3S(=O)(=O)c3ccc(C(F)F)cc3)c2)c(Cl)c1 [10/2],< 100
13,N#Cc1nccnc1-c1c(-c2cccc(-c3cc(F)c(C(=O)O)cc3Cl)c2)n(S(=O)(=O)c2ccc(C(F)F)cc2)c2ccc(F)cc12 [11/11],< 100
14,N#Cc1ccccc1-c1c(-c2cccc(-c3ccc(C(=O)O)cc3Cl)c2)n(S(=O)(=O)c2ccc(C(F)F)cc2)c2ccc(F)cc12 [11/33],< 100

# Same assay, conditions: HEK293 cells; read-out: FL-M2H Gal4β potency
row,Compound,EC50 [nM]
1,N#Cc1ccccc1-c1c(-c2cccc(-c3ccc(C(=O)O)cc3Cl)c2)n(S(=O)(=O)c2ccc(C(F)F)cc2)c2ccc(F)cc12 [11/33],1.7
